This is an account of results in US9198420B2, “Rodenticidal norbormide analogues” (priority 2012, dated 2015).

Like-named read-outs stand apart in the source and are kept apart here. A value given as a limit tells only on which side of the number the result lay.

For one series, the system named is rat caudal artery. The series can be described thus: Rat caudal artery ring contractile force (vasoconstrictory activity). Also on record: species or system rat (male Wistar). The method, then: Male Wistar rats (150-250 g) were obtained from Charles River Italia (Milano, Italy) and killed by decapitation. Ventral caudal artery was isolated, placed in Tyrode solution at room temperature and cleaned of extraneous fatty and connective tissue under a dissection microscope. All vessels were cut into rings 2 mm long, mounted on a custom-built plexiglass support by means of two intraluminal tungsten wires and placed in 20 mL double-jacketed organ baths filled with Tyrode solution of the following composition (mM): NaCl 125, KCl 5, CaCl2 2.7, MgSO4 1, KH2PO4 1.2, NaHCO3 25 and glucose 11, maintained at 37° C., pH 7.35, bubbled with 95% O2 and […]. The endothelium was removed by gently rubbing the lumen of the rings with a very thin rough-surfaced tungsten wire (caudal artery). The mechanical activity of the rings was detected by means of an isometric force transducer (Ugo Basile, Comerio, Italy) coupled to a pen recorder (Ugo Basile, Comerio, Italy). Rings were passively stretched to impose a resting tension (2 g) and were allowed to equilibrate for 60 min. After equilibration, each ring was repeatedly simulated with both KCl (90 mM) and phenylephrine (10 μM) until reproducible responses were obtained. To verify the absence of the endothelium, rings contracted with 1 μM phenylephrine were exposed to […] carbamylcholine. […] Each compound was tested for the vasoconstrictor activity at a concentration of 50 μM, which has been previously reported to be the one evoking the maximal response to norbormide. The contractile responses to the compounds were expressed as percent of the 90 mM KCl response.

The subject of a further series is Sprague Dawley rats. The experiment in a line: In vivo lethality, oral gavage. The following applies: rat, n = 2. Also on record: species or system rat (Sprague Dawley). As to the method: Sprague Dawley rats (150-200 g) were used to appraise the rodenticidal activity of the compounds put forward for in vivo evaluation. Briefly, prior to administration the compounds were dissolved in 0.2 M hydrochloric acid (5% DMSO overall), to the desired dose, and without delay either injected intravenously, via the tail, or orally gavaged. All treated animals were housed in a quiet room and monitored every minute (i.v) or every 15 min (oral) to verify early signs of toxicity.

Series [1] in a line: Simulated gastric fluid (SGF) hydrolytic stability assay. Format: physicochemical. The following applies: simulated gastric fluid without pepsin, pH 1.2, 37° C., 1 h, n = 3. As to the method: All in vivo candidates were subjected to a 1 h hydrolytic stability appraisal in the presence of SGF, without pepsin (United States Pharmacopoeia 24) [200 μL total volume, sodium chloride solution (0.03 M) acidified to pH 1.2 with concentrated hydrochloric acid, at a final compound concentration of 200 μM, 2.5% DMSO overall, 37° C., n=3], to investigate any potential chemical instabilities that may occur in the acidic environment of the stomach prior to uptake. Analysis was by RP-LCMS at an injection volume of 5 μL.

Series [2] in a line: Rat serum assay (release of NRB or NRB analogue). Format: in vitro ADME. The following applies: 80% rat serum, 37° C., 3 h, n = 3. The method, then:
The hydrolytic stability of compounds of the invention in rat blood was evaluated using in vitro rat serum obtained from Sigma-Aldrich and stored at −78° C. Similar assay conditions to those reported by Li Di and co-workers (Int. J. Pharm. 2005, 297, 110-119) were followed [200 μL total volume, 80% rat serum (diluting with phosphate buffer (0.1 M, pH 7.4)), at a final compound concentration of 200 μM, 2.5% DMSO overall, 37° C., 3 h, n=3] using an Eppendorf Thermomixer Compact. Reactions were quenched by transferring 150 μL of the incubation mixture to 450 μL of ice-cold acetonitrile, affording a final compound/NRB or NRB analogue concentration of 50 μM. Samples were centrifuged at 14,500×g for 15 min using an Eppendorf Mini Spin Plus centrifuge, at ambient temperature. 400 μL of the supernatant was removed and transferred to clean tubes. Analysis was by RP-LCMS at an injection volume of 20 μL. Each compound and corresponding NRB or NRB analogue were subjected to external calibration curves at 50 μM, 100 μM and 200 μM to allow conversion of absorbance unit area into nmol, from which the percentage of NRB or NRB analogue released from each compound was calculated.

Setting [3] is: Table 1, read-out: Vasoconstriction: maximum contractile effect as a % of 90 mM KCl contraction.
The mark [4] stands for this setting: Table 3, read-out: Vasoconstriction: maximum contractile effect as a % of 90 mM KCl contraction.
[5] abbreviates: Table 5, compounds of formula (III).

Consider `COc1ccc(C=CC(=O)NCCN2C(=O)C3C4C=C(C(O)(c5ccccc5)c5ccccn5)C(C4=C(c4ccccc4)c4ccccn4)C3C2=O)cc1` (stereo not drawn) [Compound 361, 5-(α-Hydroxy-α-2-pyridylbenzyl)-N-[2′-(4″-methoxycinnamamido)ethyl]-7-(α-2-pyridylbenzylidene)-5-norbornene-2,3-dicarboximide], for which the Emax in the series with rat caudal artery (Table 2, read-out: Vasoconstriction: maximum contractile effect as a % of 90 mM KCl contraction) came out at 21%. Moreover, the “Vasoconstriction: maximum contractile effect as a % of 90 mM KCl contraction” value in the series with rat caudal artery (Table 4, pre-cleavage, n = 3) came to 21%. For the same molecule, the “In vivo lethality (oral)” value with Sprague Dawley rats (20 mg/Kg) and with Sprague Dawley rats (40 mg/Kg) was “yes^h,i” throughout.

In the case of `CC(=O)Nc1ccc(C=CC(=O)OCCN2C(=O)C3C4C=C(C(O)(c5ccccc5)c5ccccn5)C(C4=C(c4ccccc4)c4ccccn4)C3C2=O)cc1` (stereo not drawn) [Compound 337, N-[2′-(4″-Acetamidocinnamoyloxy)ethyl]-5-(α-hydroxy-α-2-pyridylbenzyl)-7-(α-2-pyridylbenzylidene)-5-norbornene-2,3-dicarboximide], the Emax with rat caudal artery (setting [3]) came to 97%. Further, in the series with rat caudal artery (Table 4, pre-cleavage, n = 3), the “Vasoconstriction: maximum contractile effect as a % of 90 mM KCl contraction” value came out at 97%. In addition, the “In vivo lethality (oral)” value in the series with Sprague Dawley rats (40 mg/Kg) is given as “yes^h”.

Turning to `CCCCCCCCOC(=O)CN1C(=O)C2C3C=C(C(O)(c4ccccc4)c4ccccn4)C(C3=C(c3ccccc3)c3ccccn3)C2C1=O` (stereo not drawn) [Compound 369, 5-(α-Hydroxy-α-2-pyridylbenzyl)-N-octyloxycarbonylmethyl-7-(α-2-pyridylbenzylidene)-5-norbornene-2,3-dicarboximide], in the series on rat caudal artery (setting [4]), the Emax was 0%. Moreover, the “Vasoconstriction: maximum contractile effect as a % of 90 mM KCl contraction” value in the series with rat caudal artery (Table 4, pre-cleavage, n = 3) worked out at 0%. In the series on Sprague Dawley rats (40 mg/Kg), the “In vivo lethality (oral)” value is reported as “no^h”.

Consider `O=C(CCCCCCCCCCC(=O)OCCN1C(=O)C2C3C=C(C(O)(c4ccccc4)c4ccccn4)C(C3=C(c3ccccc3)c3ccccn3)C2C1=O)OCCN1C(=O)C2C3C=C(C(O)(c4ccccc4)c4ccccn4)C(C3=C(c3ccccc3)c3ccccn3)C2C1=O` (stereo not drawn) [Compound 142, N-2′-Dodecanedioyloxyethyl-5-(α-hydroxy-α-2-pyridylbenzyl)-7-(α-2-pyridylbenzylidene)-5-norbornene-2,3-dicarboximide dimer], for which the “Vasoconstriction: maximum contractile effect as a % of 90 mM KCl contraction” value with rat caudal artery (setting [5]) was determined as 0%; with rat caudal artery (n = 3, pre-cleavage, Table 6), 0%. Also, the “% NRB released, Hydrolytic Stability” value in series [1] is recorded as 0%. Moreover, the “% NRB released, Rat Serum” value in series [2] is below 5%.

In the case of `O=C(CCC(=O)OCCN1C(=O)C2C3C=C(C(O)(c4ccccc4)c4ccccn4)C(C3=C(c3ccccc3)c3ccccn3)C2C1=O)OCCN1C(=O)C2C3C=C(C(O)(c4ccccc4)c4ccccn4)C(C3=C(c3ccccc3)c3ccccn3)C2C1=O` (stereo not drawn) [Compound 138, 5-(α-Hydroxy-α-2-pyridylbenzyl)-7-(α-2-pyridylbenzylidene)-N-2′-succinoyloxyethyl-5-norbornene-2,3-dicarboximide dimer], the “Vasoconstriction: maximum contractile effect as a % of 90 mM KCl contraction” value with rat caudal artery (setting [5]) came out at 0%; in the series with rat caudal artery (n = 3, pre-cleavage, Table 6) it was 0%. The “% NRB released, Hydrolytic Stability” value in series [1] was 0%. Besides, in series [2], the “% NRB released, Rat Serum” value came out at 7.7 ± 0.2%.

As for `O=C(C=Cc1ccccc1)OCCCCN1C(=O)C2C3C=C(C(O)(c4ccccc4)c4ccccn4)C(C3=C(c3ccccc3)c3ccccn3)C2C1=O` (stereo not drawn) [Compound 137, N-4′-Cinnamoyloxybutyl-5-(α-hydroxy-α-2-pyridylbenzyl)-7-(α-2-pyridylbenzylidene)-5-norbornene-2,3-dicarboximide], the “Vasoconstriction: maximum contractile effect as a % of 90 mM KCl contraction” value in the series on rat caudal artery (Table 1, compound at 50 μM) is recorded as 0%; in the series on rat caudal artery (Table 4, pre-cleavage, n = 3) it was 0%. Further, in series [1] (footnote c: compounds not exhibiting vasoconstriction), the “% NRB released, Hydrolytic Stability (simulated gastric fluid)” value is on record as 0^c %. In addition, the “% NRB released, Rat Serum” value in series [2] turned out to be 81.0 ± 0.8%.

As for `O=C(CN1C(=O)C2C3C=C(C(O)(c4ccccc4)c4ccccn4)C(C3=C(c3ccccc3)c3ccccn3)C2C1=O)OCC=Cc1ccccc1` (stereo not drawn) [Compound 371, N-Cinnamoxycarbonylmethyl-5-(α-hydroxy-α-2-pyridylbenzyl)-7-(α-2-pyridylbenzylidene)-5-norbornene-2,3-dicarboximide], the Emax in the series on rat caudal artery (setting [4]) worked out at 0%. In addition, the “Vasoconstriction: maximum contractile effect as a % of 90 mM KCl contraction” value in the series on rat caudal artery (Table 4, pre-cleavage, n = 3) was 0%. In addition, in the series on Sprague Dawley rats (40 mg/Kg), the “In vivo lethality (oral)” value is given as “no^h”.

For `CCCCCCCC(=O)NCCN1C(=O)C2C3C=C(C(O)(c4ccccc4)c4ccccn4)C(C3=C(c3ccccc3)c3ccccn3)C2C1=O` (stereo not drawn) [Compound 364, 5-(α-Hydroxy-α-2-pyridylbenzyl)-N-2′-octanamidoethyl-7-(α-2-pyridylbenzylidene)-5-norbornene-2,3-dicarboximide], the “Vasoconstriction: maximum contractile effect as a % of 90 mM KCl contraction” value with rat caudal artery (Table 2, compound at 50 μM) is listed as 21%; with rat caudal artery (Table 4, pre-cleavage, n = 3) it was 21%. Besides, the “In vivo lethality (oral)” value in the series on Sprague Dawley rats (20 mg/Kg) and with Sprague Dawley rats (40 mg/Kg) was “yes^h,i” in each case.

With `O=C(OCN1C(=O)C2C3C=C(C(O)(c4ccccc4)c4ccccn4)C(C3=C(c3ccccc3)c3ccccn3)C2C1=O)C(c1ccccc1)c1ccccc1` (stereo not drawn) [Compound 17, N-Diphenylacetyloxymethyl-5-(α-hydroxy-α-2-pyridylbenzyl)-7-(α-2-pyridylbenzylidene)-5-norbornene-2,3-dicarboximide], in the series on rat caudal artery (setting [3]), the Emax came to 0%. Moreover, the “Vasoconstriction: maximum contractile effect as a % of 90 mM KCl contraction” value with rat caudal artery (Table 4, pre-cleavage, n = 3) was 0%. For the same molecule, the “In vivo lethality (oral)” value in the series with Sprague Dawley rats (40 mg/Kg) is reported as “no^h”.

For the molecule `CS(=O)(=O)c1ccc(C=CC(=O)OCCN2C(=O)C3C4C=C(C(O)(c5ccccc5)c5ccccn5)C(C4=C(c4ccccc4)c4ccccn4)C3C2=O)cc1` (stereo not drawn) [Compound 329, 5-(α-Hydroxy-α-2-pyridylbenzyl)-N-[2′-(4″-methylsulfonylcinnamoyloxy)ethyl]-7-(α-2-pyridylbenzylidene)-5-norbornene-2,3-dicarboximide], the Emax with rat caudal artery (setting [3]) came to 88%. For the same molecule, the “Vasoconstriction: maximum contractile effect as a % of 90 mM KCl contraction” value in the series with rat caudal artery (Table 4, pre-cleavage, n = 3) worked out at 88%. In addition, the “In vivo lethality (oral)” value with Sprague Dawley rats (40 mg/Kg) is listed as “yes^h”.

As to `COC(=O)C(N)CC(=O)OCCN1C(=O)C2C3C=C(C(O)(c4ccccc4)c4ccccn4)C(C3=C(c3ccccc3)c3ccccn3)C2C1=O.O=C(O)C(F)(F)F` (stereo not drawn) [Compound 343, 5-(α-Hydroxy-α-2-pyridylbenzyl)-N-[2′-(α-methylaspartoyloxy)ethyl]-7-(α-2-pyridylbenzylidene)-5-norbornene-2,3-dicarboximide trifluoroacetate], the “Vasoconstriction: maximum contractile effect as a % of 90 mM KCl contraction” value with rat caudal artery (Table 1, compound at 50 μM) worked out at 140%; in the series with rat caudal artery (Table 4, pre-cleavage, n = 3) it was 149%. Also, the “In vivo lethality (oral)” value with Sprague Dawley rats (20 mg/Kg) and in the series with Sprague Dawley rats (40 mg/Kg) was “yes^h,i” each time.

Regarding `O=C(OCCN1C(=O)C2C3C=C(C(O)(c4ccccc4)c4ccccn4)C(C3=C(c3ccccc3)c3ccccn3)C2C1=O)c1ccccc1` (stereo not drawn) [Compound 113, N-2′-Benzoyloxyethyl-5-(α-hydroxy-α-2-pyridylbenzyl)-7-(α-2-pyridylbenzylidene)-5-norbornene-2,3-dicarboximide], in the series with rat caudal artery (Table 1, compound at 50 μM), the “Vasoconstriction: maximum contractile effect as a % of 90 mM KCl contraction” value is reported as “≧132%”.
